This is an account of results in US10538498B2, “1,3,4-oxadiazole sulfonamide derivative compounds as histone deacetylase 6 inhibitor, and the pharmaceutical composition comprising the same” (Chong Kun Dang Pharmaceutical Corp., priority 2015, dated 2020).

The target in the assay is T1, human recombinant HDAC6 (Homo sapiens, UniProt Q9UBN7).
T1 construct: purchased Calbiochem 382180
T1 sequence (Q9UBN7 1-1215): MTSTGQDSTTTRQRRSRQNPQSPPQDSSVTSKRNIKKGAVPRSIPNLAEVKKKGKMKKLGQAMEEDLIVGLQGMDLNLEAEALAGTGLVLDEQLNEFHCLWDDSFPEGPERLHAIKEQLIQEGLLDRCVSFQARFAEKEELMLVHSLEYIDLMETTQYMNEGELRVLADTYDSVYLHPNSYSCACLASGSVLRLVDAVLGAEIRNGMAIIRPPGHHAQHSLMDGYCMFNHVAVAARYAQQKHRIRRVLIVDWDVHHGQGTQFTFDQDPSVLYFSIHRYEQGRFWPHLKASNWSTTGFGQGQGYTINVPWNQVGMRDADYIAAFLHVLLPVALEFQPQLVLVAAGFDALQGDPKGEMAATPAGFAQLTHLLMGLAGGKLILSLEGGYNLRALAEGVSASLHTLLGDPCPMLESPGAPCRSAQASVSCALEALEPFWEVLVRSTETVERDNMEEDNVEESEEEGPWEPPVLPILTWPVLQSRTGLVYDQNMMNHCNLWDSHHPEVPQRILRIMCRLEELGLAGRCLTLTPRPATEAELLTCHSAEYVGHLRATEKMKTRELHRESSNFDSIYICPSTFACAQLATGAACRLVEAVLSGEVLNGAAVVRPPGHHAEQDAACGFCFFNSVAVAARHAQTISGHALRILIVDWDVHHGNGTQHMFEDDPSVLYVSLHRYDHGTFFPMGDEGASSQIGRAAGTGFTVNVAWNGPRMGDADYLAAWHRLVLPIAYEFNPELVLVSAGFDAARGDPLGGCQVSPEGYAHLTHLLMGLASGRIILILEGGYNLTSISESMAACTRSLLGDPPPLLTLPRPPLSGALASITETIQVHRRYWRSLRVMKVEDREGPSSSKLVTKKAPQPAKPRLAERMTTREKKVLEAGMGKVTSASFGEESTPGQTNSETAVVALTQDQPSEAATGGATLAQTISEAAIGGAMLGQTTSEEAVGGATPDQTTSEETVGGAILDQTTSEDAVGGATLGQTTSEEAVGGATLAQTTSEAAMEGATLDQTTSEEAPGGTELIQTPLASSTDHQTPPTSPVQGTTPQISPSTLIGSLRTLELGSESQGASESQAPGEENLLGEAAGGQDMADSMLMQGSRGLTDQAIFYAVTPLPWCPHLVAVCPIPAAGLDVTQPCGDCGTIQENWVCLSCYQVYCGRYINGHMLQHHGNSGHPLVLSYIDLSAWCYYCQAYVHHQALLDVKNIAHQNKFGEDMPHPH
The assay is described as follows: HDAC6 enzyme activity inhibition assay (HDAC Fluorimetric Drug Discovery Kit). Type of assay: biochemical. To be noted: for HDAC6 selectivity (fold): HDAC1 vs HDAC6; for IC50: same protocol as the HDAC1 enzyme activity test. The gist of the method: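 Human recombinant enzyme, 0.3 μg, incubated with 10 μM Fluor de Lys-SIRT1 substrate and 5-fold compound dilutions at 30° C for 60 min. Developer II added for 30 min, then fluorescence read (Ex 360/Em 460). IC50 values derived from the fluorescence data.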

SMILES strings stand for the structures.

Turning to `Cc1cccc(N(Cc2ccc(-c3nnc(C(F)F)o3)cn2)S(=O)(=O)C2CCN(C3CN(C(=O)CO)C3)CC2)c1` [Compound 11839, N-((5-(5-(difluoromethyl)-1,3,4-oxadiazol-2-yl)pyridin-2-yl)methyl)-1-(1-(2-hydroxyacetyl)azetidin-3-yl)-N-(m-tolyl)piperidine-4-sulfonamide], the “HDAC6 selectivity (fold)” value was found to be 2236 fold and the IC50 came out at 44.7 nM.

Take `O=S1(=O)CCC(S(=O)(=O)N(Cc2ccc(-c3nnc(C(F)F)o3)cn2)c2ccccc2)CC1` [Compound 11350, N-((5-(5-(difluoromethyl)-1,3,4-oxadiazol-2-yl)pyridin-2-yl)methyl)-N-phenyltetrahydro-2H-thiopyran-4-sulfonamide 1,1-dioxide]: the “HDAC6 selectivity (fold)” value turned out to be 10000 fold and the IC50 was found to be 10 nM.

With `CS(=O)(=O)N(Cc1ccc(-c2nnc(C(F)F)o2)cc1F)c1nncs1` [Compound 11776, N-(4-(5-(difluoromethyl)-1,3,4-oxadiazol-2-yl)-2-fluorobenzyl)-N-(1,3,4-thiadiazol-2-yl)methanesulfonamide], the “HDAC6 selectivity (fold)” value was 113 fold and the 50% inhibitory concentration (IC50) amounted to 882 nM.

As to `O=S(=O)(C1CCN(C2COC2)CC1)N(Cc1ccc(-c2nnc(C(F)F)o2)cn1)c1cccc(Cl)c1` [Compound 11683, N-(3-chlorophenyl)-N-((5-(5-(difluoromethyl)-1,3,4-oxadiazol-2-yl)pyridin-2-yl)methyl)-1-(oxetan-3-yl)piperidine-4-sulfonamide], the “HDAC6 selectivity (fold)” value was found to be 14285 fold and the 50% inhibitory concentration (IC50) was determined as 7 nM.

In the case of `O=S(=O)(C1CCCCC1)N(Cc1ccc(-c2nnc(C(F)F)o2)cc1F)c1ccccc1` [Compound 11229, N-(4-(5-(difluoromethyl)-1,3,4-oxadiazol-2-yl)-2-fluorobenzyl)-N-phenylcyclohexanesulfonamide], the “HDAC6 selectivity (fold)” value is 1176 fold and the IC50 was 85 nM.

Regarding `CC(C)(C)OC(=O)N1CC2(CCN(CCS(=O)(=O)N(Cc3ccc(-c4nnc(C(F)F)o4)cc3)c3ccccc3)CC2)C1` [Compound 11814, tert-butyl 7-(2-(N-(4-(5-(difluoromethyl)-1,3,4-oxadiazol-2-yl)benzyl)-N-phenylsulfamoyl)ethyl)-2,7-diazaspiro[3.5]nonane-2-carboxylate], the “HDAC6 selectivity (fold)” value was 88 fold and the IC50 is 1130 nM.

As to `O=S(=O)(CCN1CCN(C/C=C/c2ccccc2)CC1)N(Cc1ccc(-c2nnc(C(F)F)o2)cc1)c1ccccc1` [Compound 11773, 2-(4-cinnamylpiperazin-1-yl)-N-(4-(5-(difluoromethyl)-1,3,4-oxadiazol-2-yl)benzyl)-N-phenylethane-1-sulfonamide], the “HDAC6 selectivity (fold)” value stood at 370 fold and the IC50 is 270 nM.

As for `CN1CCCN(CCS(=O)(=O)N(Cc2ccc(-c3nnc(C(F)F)o3)cc2)c2ccccc2)CC1` [Compound 11737, N-(4-(5-(difluoromethyl)-1,3,4-oxadiazol-2-yl)benzyl)-2-(4-methyl-1,4-diazepan-1-yl)-N-phenylethanesulfonamide], the “HDAC6 selectivity (fold)” value is reported as 1440 fold and the IC50 came to 69.4 nM.

Turning to `CN1CCN(CCCS(=O)(=O)N(Cc2ccc(-c3nnc(C(F)F)o3)cc2F)c2ccccc2)CC1` [Compound 11589, N-(4-(5-(difluoromethyl)-1,3,4-oxadiazol-2-yl)-2-fluorobenzyl)-3-(4-methylpiperazin-1-yl)-N-phenylpropane-1-sulfonamide], the “HDAC6 selectivity (fold)” value is 2326 fold and the IC50 was found to be 43 nM.

For `O=S(=O)(CCN1CCC(Cc2ccccc2)CC1)N(Cc1ccc(-c2nnc(C(F)F)o2)cc1)c1ccccc1` [Compound 11762, 2-(4-benzylpiperidin-1-yl)-N-(4-(5-(difluoromethyl)-1,3,4-oxadiazol-2-yl)benzyl)-N-phenylethane-1-sulfonamide], the “HDAC6 selectivity (fold)” value came to 100 fold and the IC50 was 1000 nM.

With `CS(=O)(=O)N(Cc1ccc(-c2nnc(C(F)F)o2)cc1F)c1ccccc1C(F)(F)F` [Compound 11219, N-(4-(5-(difluoromethyl)-1,3,4-oxadiazol-2-yl)-2-fluorobenzyl)-N-(2-(trifluoromethyl)phenyl)methanesulfonamide], the “HDAC6 selectivity (fold)” value amounted to 1064 fold and the IC50 came out at 94 nM.

Regarding `O=S(=O)(CCn1ccnc1)N(Cc1ccc(-c2nnc(C(F)F)o2)cc1)c1ccccc1` [Compound 11816, N-(4-(5-(difluoromethyl)-1,3,4-oxadiazol-2-yl)benzyl)-2-(1H-imidazol-1-yl)-N-phenylethane-1-sulfonamide], the “HDAC6 selectivity (fold)” value is reported as 2695 fold and the IC50 came out at 37.1 nM.

As to `CS(=O)(=O)N(Cc1ccc(-c2nnc(C(F)F)o2)cc1F)c1cccc(C(F)(F)F)c1` [Compound 11176, N-(4-(5-(difluoromethyl)-1,3,4-oxadiazol-2-yl)-2-fluorobenzyl)-N-(3-(trifluoromethyl)phenyl)methanesulfonamide], the “HDAC6 selectivity (fold)” value came out at 3571 fold and the IC50 was determined as 28 nM.

As to `CS(=O)(=O)N(Cc1ccc(-c2nnc(C(F)(F)F)o2)cc1F)c1cncc(F)c1` [Compound 11272, N-(2-fluoro-4-(5-(trifluoromethyl)-1,3,4-oxadiazol-2-yl)benzyl)-N-(5-fluoropyridin-3-yl)methanesulfonamide], the “HDAC6 selectivity (fold)” value was 1961 fold and the IC50 amounted to 51 nM.

Consider `CS(=O)(=O)N(Cc1ccc(-c2nnc(C(F)F)o2)cc1F)[C@@H]1CCc2ccccc21` [Compound 11748, (R)—N-(4-(5-(difluoromethyl)-1,3,4-oxadiazol-2-yl)-2-fluorobenzyl)-N-(2,3-dihydro-1H-inden-1-yl)methanesulfonamide], for which the “HDAC6 selectivity (fold)” value is reported as 230 fold and the 50% inhibitory concentration (IC50) was 433 nM.

`COC(=O)CCS(=O)(=O)N(Cc1ccc(-c2nnc(C(F)F)o2)cc1F)c1ccccc1` [Compound 11287, methyl 3-(N-(4-(5-(difluoromethyl)-1,3,4-oxadiazol-2-yl)-2-fluorobenzyl)-N-phenylsulfamoyl)propanoate]: the “HDAC6 selectivity (fold)” value came out at 3448 fold and the IC50 worked out at 29 nM.

As to `CCS(=O)(=O)N(Cc1ccc(-c2nnc(C(F)F)o2)cn1)c1cccc(Br)c1` [Compound 11366, N-(3-bromophenyl)-N-((5-(5-(difluoromethyl)-1,3,4-oxadiazol-2-yl)pyridin-2-yl)methyl)ethanesulfonamide], the “HDAC6 selectivity (fold)” value is given as 9091 fold and the IC50 turned out to be 11 nM.

As to `CS(=O)(=O)N(Cc1ccc(-c2nnc(C(F)F)o2)cn1)c1cccc(Br)c1` [Compound 11354, N-(3-bromophenyl)-N-((5-(5-(difluoromethyl)-1,3,4-oxadiazol-2-yl)pyridin-2-yl)methyl)methanesulfonamide], the “HDAC6 selectivity (fold)” value is 12500 fold and the IC50 amounted to 8 nM.

Consider `CN1CC(N2CCC(S(=O)(=O)N(Cc3ccc(-c4nnc(C(F)F)o4)cc3)c3cccc(Cl)c3)CC2)C1` [Compound 11785, N-(3-chlorophenyl)-N-(4-(5-(difluoromethyl)-1,3,4-oxadiazol-2-yl)benzyl)-1-(1-methylazetidin-3-yl)piperidine-4-sulfonamide], for which the “HDAC6 selectivity (fold)” value is listed as 2092 fold and the IC50 amounted to 47.8 nM.

`O=S(=O)(CCN1CCN(Cc2ccccc2)CC1)N(Cc1ccc(-c2nnc(C(F)F)o2)cc1)c1ccccc1` [Compound 11663, 2-(4-benzylpiperazin-1-yl)-N-(4-(5-(difluoromethyl)-1,3,4-oxadiazol-2-yl)benzyl)-N-phenylethanesulfonamide]: the “HDAC6 selectivity (fold)” value is 578 fold and the IC50 came to 173 nM.

As for `CCS(=O)(=O)N(Cc1ccc(-c2nnc(C(F)F)o2)cc1F)c1cccc2cnn(C)c12` [Compound 11522, N-(4-(5-(difluoromethyl)-1,3,4-oxadiazol-2-yl)-2-fluorobenzyl)-N-(1-methyl-1H-indazol-7-yl)ethanesulfonamide], the “HDAC6 selectivity (fold)” value came out at 4167 fold and the half-maximal inhibitory concentration (IC50) amounted to 24 nM.

One may read the IC50 as the concentration needed to halve the response being measured.
